Reference: patent publication US20180140637A1, “EPIDERMAL NEURAL CREST STEM CELLS AS A SOURCE OF SCHWANN CELLS” (priority 2015, published 2018)

How the values were obtained:
[1] = system: endogenous Schwann cells (non-neuronal cells) of dorsal root ganglia (DRG) explants; test: Removal of non-neuronal cells from DRG explants; format: cell-based, rodent; settings: for removal of endogenous Schwann cells from DRG explants: rodent DRG explants, camptothecin 20 μM three times for 48 hours each, data not shown
Protocol: (§1) Mice ([C57BL/6-TgN(ACTbEGFP)]Osb]; ‘green mice’) (Okabe et al, 1997) and rats were handled in accordance to protocols approved by the Animal Care Committee of Newcastle University (project licence 60/3876). Whole mount DRG explants from E15.5 Wistar rat embryos were dissected as described by Päiväläinen et al. (2008) and Liu et al. (2011). Dissociated DRG cultures from adult ‘green’ mice were prepared according to Malin et al (2007) and Johnson et al (2001). To remove non-neuronal cells, DRG explants were treated with camptothecin (20 μM) three times for 48 hours each, on Days 2-5, 6-8, and 13-15.
(§2) Co-cultures of hEPI-NCSC derived Schwann cells and rodent dorsal root ganglia (DRG) explants were prepared by first treating the DRG explants with camptothecin to eliminate non-neuronal cells. […] Neuronal toxicity of camptothecin has been documented previously (Bhanu and Kondapi, 2010).
Anti-human nuclear antibody immunofluorescence confirmed that all P-zero immunoreactive Schwann cells were of human origin (FIG. 7A-7C; pale blue fluorescence in original).

[2] = target: SAPK2/p38 (Homo sapiens, UniProt Q16539); settings: inhibitor of CK1 and ALK5; cited from earlier work
SAPK2/p38, sequence (Q16539 whole entry): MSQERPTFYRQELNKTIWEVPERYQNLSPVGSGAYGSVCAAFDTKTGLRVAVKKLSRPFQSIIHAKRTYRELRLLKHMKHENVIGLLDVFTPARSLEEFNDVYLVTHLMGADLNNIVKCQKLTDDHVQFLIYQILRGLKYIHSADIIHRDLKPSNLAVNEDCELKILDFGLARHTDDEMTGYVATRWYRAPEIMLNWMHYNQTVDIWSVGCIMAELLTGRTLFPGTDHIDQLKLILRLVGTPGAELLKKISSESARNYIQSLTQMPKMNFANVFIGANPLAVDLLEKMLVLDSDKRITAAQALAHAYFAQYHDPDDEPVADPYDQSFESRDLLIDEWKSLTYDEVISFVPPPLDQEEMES

[3] = system: hEPI-NCSC; test: Differentiation of hEPI-NCSC into Schwann cells; format: cell-based, human
Protocol: hEPI-NCSC were seeded at 2,500-5,000 cells per CELLstart™-coated 35-mm culture plate and cultured at 36.8° C., 5% CO2 and 5% O2. At differentiation Day minus 3 (D-3), cells were placed in XP medium, which is NeuroCult XF medium (Stem Cell Technologies, Grenoble, France Cat# 05761) supplemented with 10 ng/ml rhFGF2 (R&D Systems, Abingdon, UK Cat# 233-FB), 20 ng/ml rhEGF (R&D Systems Cat# 236-EG), 1× ITS+3 (Sigma, Poole, UK Cat# 1-2771), 1% (v/v) FBS (HyClone, Thermo Fisher, Cramlington, UK Cat# SH30070.02), 1× GlutaMAX (Invitrogen, Cat# 35050-038), 1× Penicillin/Streptomycin (Sigma Cat# P0781) and 2.5 μg/ml Amphotericin B (Sigma Cat# A2942).
The cells in XP medium were treated with 500 ng/ml recombinant human sonic hedgehog (C2411) N-terminus (rhSHH) and 500 nM CHIR99021 for two days. At differentiation Day −1, the cells were subcultured. Cells were detached with TrypLE Select, centrifuged, and plated in XP medium at a density of 30,000 cells per 35 mm culture plate and 1,000 cells per poly-D-lysine and laminin-coated 13-mm diameter glass coverslip. The next day (differentiation Day 0), cells were cultured in Alpha-modified MEM in the presence of 10% FBS and 1 mM β-mercaptoethanol (βME) for 24 hours, which was followed by treatment with 35 ng/ml all-trans-retinoic acid according to the method of Dezawa et al (2001). At differentiation Day 3, the FBS concentration was reduced to 1%. Starting at differentiation Day 0, 10 μM SB431542 was added to the culture medium. Retinoic acid and SB431542 remained in the culture medium throughout the culture period. At Day 3, 10 ng/ml rhFGF2, 5 ng/ml recombinant human PDGF-BB (rhPDGF-BB), 5 μM forskolin, 200 ng/ml recombinant human neuregulin-1 (rhNRG) were added to the culture medium. The culture medium was exchanged every 48 hours.
At Day 0 of differentiation, cells were treated for 24 hours with β-mercaptoethanol, and all-trans-retinoic acid was added on differentiation Day 1 according to the method of Dezawa et al (2001). Neither the three-day treatment with retinoic acid, nor five days of exposure to retinoic acid were sufficient for differentiating hEPI-NCSC into Schwann cells as judged by cell morphology and marker expression. […] At Day 0, SB431542, an inhibitor of transforming growth factor-beta 1 (TGFβ1) activin receptor-like kinases (ALKs), was also added to the culture medium (FIG. 1). […] On Day 3, FGF2, PDGF-BB, forskolin, and neuregulin-1 were added.

[4] = system: large diameter sensory neurons; test: Neuronal toxicity in DRG explants; format: cell-based, rodent
Protocol: as §1, §2

Compound: Nc1ccn([C@@H]2O[C@H](CO)[C@@H](O)[C@@H]2O)c(=O)n1 [cytosine arabinoside]
- removal of endogenous Schwann cells from DRG explants [1]: did not

Compound: NC(=O)c1ccc(-c2nc(-c3ccc4c(c3)OCCO4)c(-c3ccccn3)[nH]2)cc1 [D 4476, 4-[4-(2,3-Dihydro-1,4-benzodioxin-6-yl)-5-(2-pyridinyl)-1H-imidazol-2-yl]benzamide]
- selectivity over SAPK2/p38 [2]: greater than 20 fold

Compound: CC1=C(/C=C/C(C)=C/C=C/C(C)=C/C(=O)O)C(C)(C)CCC1 [Retinoic acid, all-trans-retinoic acid]
- deleterious effects to the cells ([3]; 35 ng/ml in the differentiation medium throughout the culture period): without any detectable deleterious effects to the cells
- Schwann cell differentiation, judged by cell morphology and marker expression ([3]; retinoic acid treatment for 3 days): not conducive to highly efficient Schwann cell differentiation
- Schwann cell differentiation, judged by cell morphology and marker expression ([3]; retinoic acid treatment for 5 days (data not shown)): not conducive to highly efficient Schwann cell differentiation

Compound: NC(=O)c1ccc(-c2nc(-c3ccc4c(c3)OCO4)c(-c3ccccn3)[nH]2)cc1 [SB 431542, 4-[4-(1,3-benzodioxol-5-yl)-5-(2-pyridinyl)-1H-imidazol-2-yl]benzamide]
- effect on differentiation into Schwann cells ([3]; 10 μM throughout the differentiation period): facilitated differentiation

Compound: CC[C@@]1(O)C(=O)OCc2c1cc1n(c2=O)Cc2cc3ccccc3nc2-1 [camptothecin]
- toxicity to sensory neurons [4]: selectively toxic to large diameter sensory neurons
- removal of endogenous Schwann cells from DRG explants [1]: efficiently removed endogenous Schwann cells
- non-neuronal cells in treated DRG explants ([1]; whole DRG explants from E15.5 rat embryos, camptothecin 20 μM): clear of non-neuronal cells
